Experimental data reported in ChEMBL document CHEMBL3286370, “Synthesis of triterpenoid triazine derivatives from allobetulone and betulonic acid with biological activities” (Bioorg Med Chem, 2014).

What was measured:
Human alphaherpesvirus 3 [1] = assay: Antiviral activity against thymidine kinase-deficient Varicella zoster virus 07-1 assessed as reduction in virus-induced cytopathogenicity by cell-based assay; type: functional, organism-based; settings: Human alphaherpesvirus 3, 07-1
Human betaherpesvirus 5 [2] = assay: Antiviral activity against Human cytomegalovirus AD169 assessed as reduction in viral plaque formation; type: functional, organism-based; settings: Human betaherpesvirus 5, AD169
Human betaherpesvirus 5 [3] = assay: Antiviral activity against Human cytomegalovirus Davis assessed as reduction in viral plaque formation; type: functional, organism-based; settings: Human betaherpesvirus 5, Davis
[4] = Cytotoxicity against HEL cells assessed as alteration in cellular morphology; type: cell-based; settings: human
[5] = Cytotoxicity against HEL cells assessed as growth inhibition; type: cell-based; settings: human
L1210 = assay: Cytostatic activity against mouse L1210 cells after 48 hrs by Coulter counting analysis; type: functional, cell-based; settings: L1210, 48 h
CCRF-CEM = assay: Cytostatic activity against human CEM cells after 72 hrs by Coulter counting analysis; type: functional, cell-based
HeLa = assay: Cytostatic activity against human HeLa cells after 72 hrs by Coulter counting analysis; type: functional, cell-based
Human alphaherpesvirus 1 [6] = assay: Antiviral activity against Herpes simplex virus type 1 KOS assessed as reduction in virus-induced cytopathogenicity by cell-based assay; type: functional, organism-based; settings: Human alphaherpesvirus 1, KOS
Human alphaherpesvirus 1 [7] = assay: Antiviral activity against thymidine kinase-deficient ACV-resistant Herpes simplex virus type 1 KOS assessed as reduction in virus-induced cytopathogenicity by cell-based assay; type: functional, organism-based; settings: Human alphaherpesvirus 1, KOS
Human alphaherpesvirus 2 = assay: Antiviral activity against Herpes simplex virus type 2 G assessed as reduction in virus-induced cytopathogenicity by cell-based assay; type: functional, organism-based; settings: Human alphaherpesvirus 2, strain G
Human alphaherpesvirus 3 [8] = assay: Antiviral activity against Varicella zoster virus Oka assessed as reduction in virus-induced cytopathogenicity by cell-based assay; type: functional, organism-based; settings: Human alphaherpesvirus 3, strain Oka vaccine

| Structure (SMILES) | EC50 (Human betaherpesvirus 5 [2]) [µM] | EC50 (Human betaherpesvirus 5 [3]) [µM] | IC50 (L1210) [µM] | IC50 (CCRF-CEM) [µM] | IC50 (HeLa) [µM] | EC50 (Human alphaherpesvirus 3 [1]) [µM] | MCC [4] [µM] | CC50 [5] [µM] | EC50 (Human alphaherpesvirus 1 [6]) [µM] | EC50 (Human alphaherpesvirus 1 [7]) [µM] | EC50 (Human alphaherpesvirus 2) [µM] | EC50 (Human alphaherpesvirus 3 [8]) [µM] |
| --- | --- | --- | --- | --- | --- | --- | --- | --- | --- | --- | --- | --- |
| C=C(C)[C@@H]1CC[C@]2(C(=O)O)CC[C@]3(C)[C@H](CC[C@@H]4[C@@]5(C)CC(=O)C(=O)C(C)(C)[C@@H]5CC[C@]43C)[C@@H]12 | 3 | 2.9 | 12 | 13 | 19 | 10 | 20 | 51 | 10 | 10 | 10 | 10 |
| C=C(C)[C@@H]1CC[C@]2(C(=O)O)CC[C@]3(C)[C@H](CC[C@@H]4[C@@]5(C)Cc6n[nH]c(=S)nc6C(C)(C)[C@@H]5CC[C@]43C)[C@@H]12 | ≥ 20 | ≥ 20 | 196 | 204 | 160 | – | > 100 | > 100 | – | – | – | – |

Continued, in another order:

| EC50 (Human betaherpesvirus 5 [2]) [µM] | EC50 (Human betaherpesvirus 5 [3]) [µM] | IC50 (L1210) [µM] | IC50 (CCRF-CEM) [µM] | IC50 (HeLa) [µM] | Structure (SMILES) | EC50 (Human alphaherpesvirus 3 [1]) [µM] | MCC [4] [µM] | CC50 [5] [µM] | EC50 (Human alphaherpesvirus 1 [6]) [µM] | EC50 (Human alphaherpesvirus 1 [7]) [µM] | EC50 (Human alphaherpesvirus 2) [µM] | EC50 (Human alphaherpesvirus 3 [8]) [µM] |
| --- | --- | --- | --- | --- | --- | --- | --- | --- | --- | --- | --- | --- |
| 8.6 | 11 | 7.8 | 3.8 | 10 | C=C(C)[C@@H]1CC[C@]2(C(=O)O)CC[C@]3(C)[C@H](CC[C@@H]4[C@@]5(C)Cc6cc7c(nc6C(C)(C)[C@@H]5CC[C@]43C)SCC7)[C@@H]12 | – | – | 74 | – | – | – | – |
| > 4 | ≥ 4 | 4.9 | 1.2 | 9.1 | C#CCCSc1nnc2c(n1)C(C)(C)[C@@H]1CC[C@]3(C)[C@H](CC[C@@H]4[C@H]5[C@H](C(=C)C)CC[C@]5(C(=O)O)CC[C@]43C)[C@@]1(C)C2 | – | 20 | 55 | – | – | – | – |
| 1.8 | 2 | 7.3 | 2.6 | 7.3 | C=C(C)[C@@H]1CC[C@]2(C(=O)O)CC[C@]3(C)[C@H](CC[C@@H]4[C@@]5(C)Cc6nnc(SC)nc6C(C)(C)[C@@H]5CC[C@]43C)[C@@H]12 | – | 20 | 45 | – | – | – | – |
